# pKd: −log10 of the molar value. “And” between values parts separate entries of the source, which are not always exact repeats. Equal values may be shown once. “Also recorded” adds a separate entry of the source. Read-outs that look alike come from different tables or passages of the source.
# Tests used:
# [1] = tested on: Human prostate cancer LNCaP cells (PSMA positive); assay: LNCaP cell uptake experiment; assay type: cell-based; conditions: for specific binding to PSMA-positive LNCaP cells: conclusion from the uptake and blocking experiment
# Experimental: Human prostate cancer LNCaP cells (PSMA positive) were cultured in a RPMI 1640 medium containing 10% fetal bovine serum and 1% penicillin-streptomycin double antibody under 37° C. with 5% CO2 and saturated humidity in the incubator. When the cells reach log phase, they were digested with 0.25% trypsin, then the cells were collected and washed twice with PBS, after that a cell suspension was obtained for further culture. A fixed number of cell lines (1.0×10^6 cells/1 ml) was placed in each well of a 24-well cell culture dish, and the experiment was performed after the logarithmic growth phase.
# The cells were divided into an experimental group and a blocking group. […] 6 groups of experiments were carried out in parallel. After 1 h, the culture medium was aspirated, placed in a γ-counting tube, and then washed three times with PBS. The washing solution and the culture medium were combined for storage. Then the cells were trypsinized, collected in another counting tube, and the percentage of cell uptake was calculated by a γ-counting tube.
# [2] = tested on: prostate tumors versus bladder; assay: Comparative imaging study with existing PSMA imaging agents in 15 prostate cancer patients; assay type: in vivo, human; conditions: 3 groups, SPECT/CT or PET/CT (FIG. 19)
# Description: 15 patients with prostate cancer were randomly divided into 3 groups. One group underwent ^99mTc-HYNIC-ALUG SPECT/CT, one group underwent ^68Ga-PSMA11 PET/CT, and one group underwent ^99mTc-HYNIC-PSMA-XL3 SPECT/CT.
# [3] = tested on: prostate cancer tumors (PSMA expression); assay: SPECT/CT imaging of 10 patients with prostate cancer, with immunohistochemistry of surgical specimens; assay type: in vivo, human
# Experimental: The patients were injected with about 740MBq of ^99mTc-HYNIC-PSMA-XL-3, and 2 hours later, they were examined by a Discovery 670 (GE, USA) scanner. Taking the right obturator internus muscle as the background, the target-to-background ratio (TBR) was calculated, and the results were shown in FIG. 15. […] Four of the five patients with primary prostate cancer underwent radical prostatectomy, and one of the three patients with biochemical recurrence prostate cancer underwent salvage lymph node dissection. Without knowing the results of ^99mTc-HYNIC-PSMA-XL-3 SPECT/CT, pathology specialists performed pathological analysis of samples. Representative sections were stained by immunohistochemistry method, deparaffinized in xylene and rehydrated in graded ethanol series. Antigen retrieval was performed with the aid of autoclave and retrieval buffer (Target Retrieval Solution, Dako). Mouse monoclonal antibody against PSMA (clone 3E6, Dako) was diluted at a 1:100 dilution and incubated overnight at 4° C., followed by immunodetection using the Histostain-Plus Detection Kit (Invitrogen). Stained sections were scanned using Nanozoomer 2.0-[…] (Hamamatsu Photonics) to generate digital overall images.
# PSMA protein = PSMA protein (Homo sapiens, UniProt Q04609); assay: Affinity assay by Surface Plasmon Resonance (SPR); conditions: binding to PSMA protein
# Experimental: The binding capacity of HYNIC-PSMA-XL-2 and HYNIC-PSMA-XL-3 to PSMA protein was determined by Surface Plasmon Resonance (SPR).
# [4] = tested on: biochemical recurrent prostate cancer; assay: Comparison of SPECT/CT and PET/CT in 10 patients with biochemical recurrent prostate cancer; assay type: in vivo, human; conditions: for patients found to have local recurrence in the prostatic fossa / positive rate of imaging: 5 patients per group; for positive rate of imaging: preliminary statistics; for Number of tumors / With or without local recurrence: per patient (No. 1-10), biochemical recurrence after radical prostatectomy
# Experimental: 10 patients with biochemical recurrent prostate cancer were randomly divided into two groups. The basic clinical information of the two groups was similar: they both have previously received radical prostatectomy, and the current PSA of them were 1-3 ng/ml, and the GS score of them were 8-9. One group underwent ^68Ga-PSMA11 PET/CT, and the other group underwent ^99mTc-PSMA-XL SPECT/CT.
# [5] = upper bound calculated from ka, as kd was beyond the detection limit, read-out: KD value (SPR method)
# Chain of PSMA protein (Q04609 whole entry): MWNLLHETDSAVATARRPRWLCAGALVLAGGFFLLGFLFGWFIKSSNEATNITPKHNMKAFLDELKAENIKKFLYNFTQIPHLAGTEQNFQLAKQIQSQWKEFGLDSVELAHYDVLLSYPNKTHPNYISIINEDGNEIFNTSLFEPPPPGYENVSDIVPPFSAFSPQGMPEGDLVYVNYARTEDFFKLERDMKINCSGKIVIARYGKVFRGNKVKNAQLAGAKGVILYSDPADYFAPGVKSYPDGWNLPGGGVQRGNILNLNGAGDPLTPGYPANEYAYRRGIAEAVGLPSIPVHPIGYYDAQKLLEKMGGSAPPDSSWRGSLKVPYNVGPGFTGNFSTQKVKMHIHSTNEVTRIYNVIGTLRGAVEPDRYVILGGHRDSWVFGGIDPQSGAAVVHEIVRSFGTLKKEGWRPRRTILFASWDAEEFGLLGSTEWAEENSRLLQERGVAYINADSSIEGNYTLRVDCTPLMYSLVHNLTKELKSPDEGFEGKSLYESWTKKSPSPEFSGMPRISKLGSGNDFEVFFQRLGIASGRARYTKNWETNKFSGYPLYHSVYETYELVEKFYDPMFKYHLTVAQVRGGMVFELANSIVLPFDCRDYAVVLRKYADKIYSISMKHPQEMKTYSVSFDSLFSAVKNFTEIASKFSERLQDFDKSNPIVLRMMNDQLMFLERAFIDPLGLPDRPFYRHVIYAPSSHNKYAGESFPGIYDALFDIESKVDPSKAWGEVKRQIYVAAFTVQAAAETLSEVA
smiles,measurement,setting,value
O=C(O)CCC(NC(=O)NC(CCCCNC(=O)C(Cc1ccc2ccccc2c1)NC(=O)c1ccc(CNC(=O)C(CCC(=O)O)NC(=O)c2ccc(N[N]=[99Tc]345([Cl])[O]C(=O)C[N]3CC[N]4CC(=O)[O]5)nc2)cc1)C(=O)O)C(=O)O (stereo not drawn) [^99mTc-HYNIC/EDDA-PSMA-XL-3],specific binding to PSMA-positive LNCaP cells,[1],highly specifically bind
same,distribution of radioactivity in the bladder,[2]; listed as 99mTc-HYNIC-PSMA-XL3,very low distribution of radioactivity
same,distribution of radioactivity in the bladder,[2]; listed as 99mTc-HYNIC-PSMA-XL-3,less distribution of radioactivity in the bladder
same,consistency of SPECT/CT tumor uptake with immunohistochemical PSMA expression of surgical specimens,"[3]; patients who underwent surgery, listed as 99mTc-HYNIC-PSMA-XL-3",highly consistent
same,distribution of radioactivity in the bladder,"[3]; patients, about 740 MBq, SPECT/CT 2 hours after injection, compared with tumor uptake",low
same,tumor targeting,"[3]; patients, about 740 MBq, SPECT/CT 2 hours after injection, metastases such as lymph nodes/bone",high
"O=C(O)CCc1ccc(O)c(CN(CCN(CC(=O)O)Cc2cc(CCC(=O)NCCCCCC(=O)NCCCC[C@H](NC(=O)N[C@@H](CCC(=O)O)C(=O)O)C(=O)O)ccc2O)CC(=O)O)c1 [PSMA11, reference compound]",pKd,"PSMA protein; reference PSMA inhibitors, same method",8.90
O=C(O)CCC(NC(=O)NC(CCCCNC(=O)C(Cc1ccc2ccccc2c1)NC(=O)c1ccc(CNC(=O)C(CCC(=O)O)NC(=O)c2ccc(N[N]=[99Tc]3([Cl])[O]C(=O)CNCCNCC(=O)[O]3)nc2)cc1)C(=O)O)C(=O)O (stereo not drawn) [^99mTc-HYNIC/EDDA-PSMA-XL-3],"percentage of cell uptake, Experimental group","[1]; LNCaP cells, 0.5 μCi per well, 1 h",14.01 ± 1.11%
same,"percentage of cell uptake, Blocking group","[1]; LNCaP cells, 1 h, excess 2-PMPA (1000-fold molar equivalent) added half an hour in advance",2.66 ± 0.51%
same,patients found to have local recurrence in the prostatic fossa,[4],1
same,positive rate of imaging,[4],80%
same,Number of tumors,[4]; listed as 99mTc-PSMA-XL,3 and 1 and 2 and 0 and 4
same,With or without local recurrence,[4]; listed as 99mTc-PSMA-XL,yes and no (4×)
"NNc1ccc(C(=O)NC(CCC(=O)O)C(=O)NC(CCC(=O)O)C(=O)NCc2ccc(C(=O)NC(Cc3ccc4ccccc4c3)C(=O)NCCCCC(NC(=O)NC(CCC(=O)O)C(=O)O)C(=O)O)cc2)cn1 (stereo not drawn) [HYNIC-PSMA-XL-2, Glu-Urea-Lys-2Nal-AMB-Glu-Glu-HYNIC]",pKd,PSMA protein; [5],> 11.19
"O=C([O-])CN(CCN(CC(=O)[O-])Cc1cc(CCC(=O)NCCCCCC(=O)NCCCC[C@H](NC(=O)N[C@@H](CCC(=O)O)C(=O)O)C(=O)O)ccc1[O-])Cc1cc(CCC(=O)O)ccc1[O-].[68Ga+3].[OH3+] [^68Ga-PSMA11, reference compound]",patients found to have local recurrence in the prostatic fossa,[4],1
same,positive rate of imaging,[4],80%
same,Number of tumors,[4],1 (2×) and 4 and 0 and 2
same,With or without local recurrence,[4],no (4×) and yes
same,distribution of radioactivity in the bladder,[2],higher radiophysiological distribution; also recorded: high physiological distributions in the bladder
O=C(O)CCC(NC(=O)NC(CCCCNC(=O)C(Cc1ccc2ccccc2c1)NC(=O)c1ccc(CNC(=O)C(CCC(=O)O)NC(=O)C(CCC(=O)O)NC(=O)c2ccc(N[N]=[99Tc]345([Cl])[O]C(=O)C[N]3CC[N]4CC(=O)[O]5)nc2)cc1)C(=O)O)C(=O)O (stereo not drawn) [^99mTc-HYNIC/EDDA-PSMA-XL-2],specific binding to PSMA-positive LNCaP cells,[1],highly specifically bind
"NNc1ccc(C(=O)NC(CCC(=O)O)C(=O)NCc2ccc(C(=O)NC(Cc3ccc4ccccc4c3)C(=O)NCCCCC(NC(=O)NC(CCC(=O)O)C(=O)O)C(=O)O)cc2)cn1 (stereo not drawn) [HYNIC-PSMA-XL-3, Glu-Urea-Lys-2Nal-AMB-Glu-HYNIC]",pKd,PSMA protein; [5],> 11.31
